Measured values: paper PMC5366925, “Novel 1, 4-dihydropyridines for L-type calcium channel as antagonists for cadmium toxicity” (Scientific Reports, 2017)
Converted amounts (≈) assume the structure as drawn.

What was measured:
[1] = tested on: SH-SY5Y cells (containing L- and N-type Ca2+ channels); assay: Intracellular Ca2+ measurement (Fluo-4 NW), carbachol-induced increase; type: cell-based; conditions: Homo sapiens, carbachol 100 nM, mean ± SD, unit printed only in abstract, not in Table 2, read-out: Calcium overload-preventing activity (IC50), SH-SY5Y
Experimental: (§1) The A7r5 (rat aorta smooth muscle cells) and SH-SY5Y (human neuroblastoma cell line) were obtained from the National Centre for Cell Science, Pune, India. The cells were grown at 37.5 °C in a humidified atmosphere with 5% CO2/95% air in Dulbecco’s modified Eagle medium (DMEM), restraining 2 mM of glutamine and supplemented with 10% fetal bovine serum. Once a week the cells were passaged using 0.25% trypsin, 0.53 mM EDTA (Ethylene diamine tetra acetic acid) solution and grown in […] plastic culture flasks until confluence.
(§2) In the experiment, SH-SY5Y cells were plated in 96-well plates at a density of 30,000 cells per well and incubated for 24 h. A7r5 cells were seeded into 96-well plates at a density of 10,000 cells per well and incubated for 72 h. the intracellular [Ca^2+]i concentration changes were studied using the Fluo-4 NW Calcium Assay Kit (Invitrogen, Sweden), as per the manufacturer’s instructions. Both SH-SY5Y and A7r5 cells were loaded with […] for 45 min. Then, the cells were pre-incubated in the dark for 15 min with the tested compounds at concentrations from […]. The compounds were dissolved in distilled water. Application of carbachol (100 nM) to Fura-4 loaded SH-SY5Y cells was used to stimulate changes in the intracellular [Ca^2+]i concentration, whereas A7r5 cells were treated with 1.5 mM CaCl2 and KCl (50 mM) for 5 min to induce an increase in the [Ca^2+] ion concentration. The intracellular [Ca^2+] ion concentration was measured using the fluorescence spectrophotometer’s (Thermo Ascient, Hyderabad) settings appropriate for an excitation at 494 nm and an emission at 516 nm. Amlodipine was used as the positive control. IC50 values as mean ± SD were calculated using Graph Pad Prism 5.0 software.

[2] = tested on: A7r5 cells (containing L-type Ca2+ channels); assay: Intracellular Ca2+ measurement (Fluo-4 NW), CaCl2/KCl-induced increase; type: cell-based, rat; conditions: for IC50: Rattus norvegicus, A7r5 cells, 1.5 mM CaCl2 and 50 mM KCl, mean ± SD, unit printed only in abstract, not in Table 2, read-out: Calcium overload-preventing activity (IC50), A7r5; for fold higher activity in A7r5 cells than in SH-SY5Y cells: A7r5 vs SH-SY5Y IC50
Experimental: as §1, §2

[3] = tested on: mitochondrial functioning; assay: Effect on mitochondrial functioning; conditions: at concentrations close to those demonstrating L-type calcium channel blocking activity
A7r5 cells = assay: Cadmium cytotoxicity study (LDH release); type: cell-based, rat; conditions: for fold decrease in cell lethality (ratio of LC50 vs CdCl2 alone): then CdCl2 for 4 h
Experimental: The A7r5 cell line was obtained from National Center for Cell Sciences, Pune, India. The cells were grown in Dulbecco’s Modified Eagles Medium (DMEM) supplemented with 5% fetal bovine serum at 37 °C in an atmosphere of 90% air/10% CO2. For determinations of cell viability, A7r5 cells were removed from stock flasks by mild digestion with trypsin-EDTA solution and the stock cultures were developed in 25 cm^2 culture flasks and all trials were done in 96 micro titer plates. After plating, the cells were allowed to grow to confluence for 7–10 days before use.
The rat aorta smooth muscle A7r5 cells received one of the four treatments following overnight incubation. The first group received CdCl2 at 1, 10, 20, 30, 40, 50 μM prepared in complete culture for 4 h incubation. The second group received pretreatment with 200 μM AD for 1 h followed by the addition of 1, 10, 20, 30, 40, 50 μM CdCl2 for 4 h incubation. The third group received pretreatment with 200 μM compound 5a for 1 h followed by the addition of 1, 10, 20, 30, 40, 50 μM CdCl2 for 4 h incubation. The fourth group received pretreatment with 200 μM compound 5a for 1 h followed by the addition of 1, 10, 20, 30, 40, 50 μM CdCl2 for 4 h incubation. The CdCl2 different concentrations used in this test were chosen based on preliminary studies to identify concentrations which ranged from producing no effects to cytolethality. A short term exposure (4 h) was chosen to evaluate the effects of metallothionein induction. The cell viability was assessed by measurement of (Lactate Dehydrogenase) LDH released into the medium. LDH release was expressed as a percent of the maximum after lysis of cells with TritonX-100.

SMILES	IC50 [1] [µg/mL]	IC50 [2] [µg/mL]	fold higher activity in A7r5 cells than in SH-SY5Y cells [2]	effect on mitochondrial functioning [3]	fold decrease in cell lethality (ratio of LC50 vs CdCl2 alone) (A7r5 cells; 200 μM for 1 h pretreatment) [fold]	loss of cell viability ablated by pretreatment (A7r5 cells; 200 μM for 1 h pretreatment, 20 μM CdCl2) [%]	effect on LDH leakage (A7r5 cells; 1 h pretreatment with 200 μM, compound alone)	CC50 (A7r5 cells; 4 h exposure, CdCl2 alone, read-out: LC50 (CdCl2 induced cell death)) [µM]
CCOC(=O)NCCOCC1=C(C(=O)OCC)C(c2ccccc2Cl)C(C(=O)OC)=CN1 (centres unmarked) [3d]	14 ± 0.39 (≈ 30 µM)	4.25 ± 0.25 (≈ 9.1 µM)	–	–	–	–	–	–
CCOC(=O)C1=C(COCCNC(=O)OCC(C)C)NC=C(C(=O)OC)C1c1ccccc1Cl (centres unmarked) [3e]	40 ± 0.43 (≈ 80.8 µM)	8.35 ± 0.52 (≈ 16.9 µM)	–	–	–	–	–	–
CCOC(=O)C1=C(COCCNS(=O)(=O)c2ccc([N+](=O)[O-])cc2)NC=C(C(=O)OC)C1c1ccccc1Cl (centres unmarked) [5a]	8 ± 0.23 (≈ 13.8 µM)	0.18 ± 0.02 (≈ 0.31 µM)	at least 10 fold	did not affect mitochondrial functioning	2.5	–	–	–
CCOC(=O)C1=C(COCCNS(=O)(=O)c2ccc(Br)cc2)NC=C(C(=O)OC)C1c1ccccc1Cl (centres unmarked) [5b]	20 ± 0.52 (≈ 32.6 µM)	0.52 ± 0.48 (≈ 0.847 µM)	–	–	–	–	–	–
CCOC(=O)C1=C(COCCNS(=O)(=O)c2ccc(Cl)c([N+](=O)[O-])c2)NC=C(C(=O)OC)C1c1ccccc1Cl (centres unmarked) [5c]	15 ± 0.53 (≈ 24.4 µM)	0.43 ± 0.52 (≈ 0.7 µM)	–	–	–	–	–	–
CCOC(=O)C1=C(COCCNS(=O)(=O)c2ccc(F)cc2)NC=C(C(=O)OC)C1c1ccccc1Cl (centres unmarked) [5d]	21 ± 0.49 (≈ 38 µM)	0.59 ± 0.61 (≈ 1.07 µM)	–	–	–	–	–	–
CCOC(=O)C1=C(COCCNS(=O)(=O)C(F)(F)F)NC=C(C(=O)OC)C1c1ccccc1Cl (centres unmarked) [5e]	10 ± 0.18 (≈ 19 µM)	0.25 ± 0.63 (≈ 0.474 µM)	at least 10 fold	did not affect mitochondrial functioning	2.3	–	–	–
CCOC(=O)C1=C(COCCN)NC(C)=C(C(=O)OC)C1c1ccccc1Cl (centres unmarked) [Amlodipine, reference compound]	11 ± 0.61 (≈ 26.9 µM)	0.45 ± 0.52 (≈ 1.1 µM)	–	–	2.0	75	did not affect LDH leakage	–
[Cl][Cd][Cl] [CdCl2]	–	–	–	–	–	–	–	30.2 ± 0.82
